According to the supplement of paper PMC5908809:

Experiments:
[1] = tested on: normal NK cells expanded with K562-aAPC; experiment: percent inhibition of viability; higher = more inhibition; conditions: 72 h, IL-2 2.5 ng/mL
Method: (§1)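 Drug sensitivity and resistance testing on K562-aAPC-expanded normal NK cells: 5 concentrations (10-fold steps over a 10,000-fold range), 72 h at 37 °C, viability by CellTiter-Glo normalised to DMSO and benzethonium chloride controls; DSS from the fitted curve.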

DERL-7 (IL-2 2.5 ng/mL) [2] = experiment: as above; conditions: 72 h
IMC-1 (IL-2 20 ng/mL) [3] = experiment: as above; conditions: 72 h
KAI3 (IL-2 2.5 ng/mL) [4] = experiment: as above; conditions: 72 h
KHYG-1 (IL-2 2.5 ng/mL) [5] = experiment: as above; conditions: 72 h
NK-92 (IL-2 2.5 ng/mL) [6] = experiment: as above; conditions: 72 h
NK-YS (IL-2 2.5 ng/mL) [7] = experiment: as above; conditions: 72 h
NKL (IL-2 2.5 ng/mL) [8] = experiment: as above; conditions: 72 h
SNK-6 (IL-2 2.5 ng/mL) [9] = experiment: as above; conditions: 72 h
YT (IL-2 2.5 ng/mL) [10] = experiment: as above; conditions: 72 h
[11] = tested on: normal primary NK cells, pool 1 (3 donors) (IL-2 2.5 ng/mL); experiment: as above; conditions: 72 h
[12] = tested on: normal primary NK cells, pool 1 (3 donors), resting (IL-2 0 ng/mL); experiment: as above; conditions: 72 h
[13] = tested on: normal primary NK cells, pool 2 (3 donors) (IL-2 2.5 ng/mL); experiment: as above; conditions: 72 h
[14] = tested on: normal primary NK cells, pool 3 (3 donors) (IL-2 2.5 ng/mL); experiment: as above; conditions: 72 h
[15] = tested on: normal NK cells expanded with K562-aAPC; experiment: drug sensitivity score (DSS) (DSS units); higher = more sensitive; extreme values may be limits of the assay; conditions: 72 h; IL-2 2.5 ng/mL
Method: as §1

DERL-7 (IL-2 2.5 ng/mL) [16] = experiment: as above; conditions: 72 h
IMC-1 (IL-2 20 ng/mL) [17] = experiment: as above; conditions: 72 h
KAI3 (IL-2 2.5 ng/mL) [18] = experiment: as above; conditions: 72 h
KHYG-1 (IL-2 2.5 ng/mL) [19] = experiment: as above; conditions: 72 h
NK-92 (IL-2 2.5 ng/mL) [20] = experiment: as above; conditions: 72 h
NK-YS (IL-2 2.5 ng/mL) [21] = experiment: as above; conditions: 72 h
NKL (IL-2 2.5 ng/mL) [22] = experiment: as above; conditions: 72 h
SNK-6 (IL-2 2.5 ng/mL) [23] = experiment: as above; conditions: 72 h
YT (IL-2 2.5 ng/mL) [24] = experiment: as above; conditions: 72 h
[25] = tested on: normal primary NK cells, pool 1 (3 donors) (IL-2 2.5 ng/mL); experiment: as above; conditions: 72 h
[26] = tested on: normal primary NK cells, pool 1 (3 donors), resting (IL-2 0 ng/mL); experiment: as above; conditions: 72 h
[27] = tested on: normal primary NK cells, pool 2 (3 donors) (IL-2 2.5 ng/mL); experiment: as above; conditions: 72 h
[28] = tested on: normal primary NK cells, pool 3 (3 donors) (IL-2 2.5 ng/mL); experiment: as above; conditions: 72 h

c1ccc(Cn2c(-c3ccc(OC[C@H](C4CCNCC4)n4c(-c5ccccc5)nc5ccccc54)cc3)nc3ccccc32)cc1 [deltarasin] (max concentration tested 10000 nM)
percent inhibition of viability [%]
Conditions	1 nM	10 nM	100 nM	1000 nM	10000 nM
DERL-7 (IL-2 2.5 ng/mL) [2]	-6.29	6.05	-2.6	15.6	100
IMC-1 (IL-2 20 ng/mL) [3]	-1.41	-1.69	-5.88	-8.23	100
KAI3 (IL-2 2.5 ng/mL) [4]	1.58	6.95	3.87	19.1	99.1
KHYG-1 (IL-2 2.5 ng/mL) [5]	-3.81	-4.92	-1.42	4.21	99.4
NK-92 (IL-2 2.5 ng/mL) [6]	-6.78	-14.8	-7.87	17.8	98.7
NK-YS (IL-2 2.5 ng/mL) [7]	1.38	0.11	0.9	9.01	99.1
NKL (IL-2 2.5 ng/mL) [8]	-1.26	-0.19	0.54	13.1	100
SNK-6 (IL-2 2.5 ng/mL) [9]	-2.79	1.66	-4.21	-2.37	100
YT (IL-2 2.5 ng/mL) [10]	-7.64	-4.86	-5.15	6.64	99
[1]	-6.73	-5.61	-6.67	-4.59	100
[11]	-6.29	-12.3	-0.84	3.6	100
[12]	-29	-22.3	-17.1	22.4	100
[13]	3.52	-1.56	-7.68	10.8	100
[14]	-5.09	-3.8	-9.07	2.9	101

Conditions	drug sensitivity score
DERL-7 (IL-2 2.5 ng/mL) [16]	8.12
IMC-1 (IL-2 20 ng/mL) [17]	5
KAI3 (IL-2 2.5 ng/mL) [18]	8.58
KHYG-1 (IL-2 2.5 ng/mL) [19]	6.1
NK-92 (IL-2 2.5 ng/mL) [20]	8.37
NK-YS (IL-2 2.5 ng/mL) [21]	6.93
NKL (IL-2 2.5 ng/mL) [22]	7.72
SNK-6 (IL-2 2.5 ng/mL) [23]	5.39
YT (IL-2 2.5 ng/mL) [24]	6.49
[15]	5.21
[25]	6.08
[26]	9.04
[27]	7.32
[28]	6.03
